From ChEMBL document CHEMBL1201862, “PubChem BioAssay data set” (2004)
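All cell lines were grown in 96-well plates and treated with compound for 48 hours. GI50 marks 50% less growth.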 Active and inactive are the calls of the source. No stated cut-off is given here; in the data, active = GI50 up to about 1.1 µM and inactive = higher.

Assays:
Experiment in all cases: growth of human tumour cells (NCI), 48 h
[1] = test system: SW-620
[2] = test system: RXF 393
[3] = test system: RXF 631
[4] = test system: OVCAR-3
[5] = test system: SNB-78
[6] = test system: ACHN
[7] = test system: Malme-3M
[8] = test system: SNB-75
[9] = test system: SF-268
[10] = test system: NCI-H460
[11] = test system: HT-29
[12] = test system: HOP-62
[13] = test system: SK-MEL-5
[14] = test system: KM-20L2
[15] = test system: LXFL 529
[16] = test system: 786-0
[17] = test system: RPMI-8226
[18] = test system: CCRF-CEM
[19] = test system: M19-MEL
[20] = test system: DMS-273
[21] = test system: DLD-1
[22] = test system: A549
[23] = test system: OVCAR-4
[24] = test system: UACC-257
[25] = test system: TK-10
[26] = test system: NCI-H226
[27] = test system: MOLT-4
[28] = test system: K562
[29] = test system: NCI-H23
[30] = test system: LOX IMVI
[31] = test system: HOP-18
[32] = test system: CAKI-1
[33] = test system: HCT-116
[34] = test system: XF498
[35] = test system: SK-OV-3
[36] = test system: SK-MEL-2
[37] = test system: SF-295
[38] = test system: NCI-H522
[39] = test system: EKVX
[40] = test system: UACC-62
[41] = test system: HCT-15
[42] = test system: HOP-92
[43] = test system: OVCAR-5
[44] = test system: SNB-19
[45] = test system: COLO 205
[46] = test system: UO-31
[47] = test system: SN12C
[48] = test system: IGROV-1
[49] = test system: HL-60
[50] = test system: A498
[51] = test system: HCC 2998
[52] = test system: OVCAR-8
[53] = test system: M14
[54] = test system: SR
[55] = test system: DMS-114
[56] = test system: U-251
[57] = test system: SK-MEL-28
[58] = test system: KM12
[59] = test system: SF-539

`CCc1nc2c(O)ccc(O)c2nc1C` was tested, and the GI50 [1] was 2.15 µM (inactive), the GI50 [2] was 11.5 µM (inactive) and the GI50 [3] was 19.1 µM (inactive). For the same compound, the GI50 [4] was 14.7 µM (inactive), the GI50 [5] was 27.8 µM (inactive) and the GI50 [6] was 10.7 µM (inactive). The GI50 [7] was 15.8 µM (inactive), the GI50 [8] was 20.8 µM (inactive) and the GI50 [9] was 18.7 µM (inactive). For the same compound, the GI50 [10] was 19.2 µM (inactive), the GI50 [11] was 17.2 µM (inactive) and the GI50 [12] was 18 µM (inactive). For the same compound, the GI50 [13] was 17.5 µM (inactive), the GI50 [14] was 18.6 µM (inactive) and the GI50 [15] was 4.97 µM (inactive). The GI50 [16] was 13.5 µM (inactive), the GI50 [17] was 3.8 µM (inactive) and the GI50 [18] was 2.9 µM (inactive). The GI50 [19] was 7.35 µM (inactive), the GI50 [20] was 19.9 µM (inactive) and the GI50 [21] was 2.9 µM (inactive). The GI50 [22] was 21.8 µM (inactive), the GI50 [23] was 6.75 µM (inactive) and the GI50 [24] was 17.4 µM (inactive). For the same compound, the GI50 [25] was 22.5 µM (inactive), the GI50 [26] was 15.8 µM (inactive) and the GI50 [27] was 3.65 µM (inactive). For the same compound, the GI50 [28] was 4.08 µM (inactive), the GI50 [29] was 18.6 µM (inactive) and the GI50 [30] was 16.2 µM (inactive). For the same compound, the GI50 [31] was 20.9 µM (inactive), the GI50 [32] was 18.1 µM (inactive) and the GI50 [33] was 8.38 µM (inactive). For the same compound, the GI50 [34] was 24.2 µM (inactive), the GI50 [35] was 20 µM (inactive) and the GI50 [36] was 18 µM (inactive). The GI50 [37] was 20 µM (inactive), the GI50 [38] was 2.56 µM (inactive) and the GI50 [39] was 17.3 µM (inactive). For the same compound, the GI50 [40] was 14.3 µM (inactive), the GI50 [41] was 16.4 µM and the GI50 [42] was 5.64 µM (inactive). The GI50 [43] was 19.3 µM (inactive), the GI50 [44] was 18.9 µM (inactive) and the GI50 [45] was 2.53 µM (inactive). For the same compound, the GI50 [46] was 19.3 µM (inactive), the GI50 [47] was 16 µM (inactive) and the GI50 [48] was 19 µM (inactive). For the same compound, the GI50 [49] was 2.93 µM (inactive), the GI50 [50] was 20.9 µM (inactive) and the GI50 [51] was 24.6 µM (inactive). For the same compound, the GI50 [52] was 10 µM (inactive), the GI50 [53] was 15 µM (inactive) and the GI50 [54] was 18.2 µM (inactive). For the same compound, the GI50 [55] was 18.2 µM (inactive), the GI50 [56] was 16.5 µM (inactive) and the GI50 [57] was 19.6 µM (inactive). The GI50 [58] was 17 µM (inactive) and the GI50 [59] was 17 µM (inactive).
